From PMC10041529 (Journal of Medicinal Chemistry, 2023)

Experiments:
[1] = target: T1, GSK3β-mediated phosphorylation of Cyclin D1 (Homo sapiens, UniProt P49841); assay: Cyclin D1 phosphorylation profile (Western Blot) in transfected HEK293T cells; type: cell-based; details: HA-Cyclin D1 + FLAG-GSK3β, 10 μM, 3 h
T1 construct: we used only GSK3β (26–383) kinase domain constructs in our cellular studies; expressed in transfected cells; host or cells: HEK293T (pcDNA3.1, transient)

[2] = test system: calcineurin/NFAT pathway with overexpressed GSK3β; assay: NFAT translocation assay (EGFP-NFATc1 imaging) in HEK293T cells; type: cell-based, human; details: pretreatment 3 h, ionomycin 1 h
Source text: One of the important cellular targets of DYRK1A and GSK3β is the NFAT (Nuclear factor of activated T-cells) transcription factor, which plays a major role in regulating the cell cycle.[52] The calcineurin/NFAT signaling controlled by DYRK1A and GSK3β activity is an important target for neurodegenerative processes and β-cell proliferation. Both kinases inactivate NFAT’s transcription factor by phosphorylation of its nuclear pool, which leads to cytosolic export. […] In unstimulated cells, EGFP-NFAT stayed predominantly in the cytosol, and only after stimulation with ionomycin, the nuclear translocation and accumulation of EGFP-NFAT were observed (Figure 4). Overexpression of any of the kinases blocked the nuclear accumulation of EGFP-NFAT upon cell stimulation, proving the negative regulation of the calcineurin/NFAT pathway by DYRK1A or GSK3β.
EGFP-NFATc1 (green) was cotransfected with either a mock vector, DYRK1A (red), or GSK3β (red) into HEK293T cells.
HEK293T cells were grown on a μ-Slide 8 well (IBIDI) to 50%–70% confluency. The plasmids expressing the desired proteins, mCherry-DYRK1A or mCherry-GSK3β and eGFP-NFATc1, were transiently cotransfected for 24 h with PEI Prime (Sigma-Aldrich). […] Images were collected with a Zeiss Axio Observer 3 fluorescence microscope and analyzed in ZEN Blue edition software.

[3] = target: T2, DYRK1A kinase domain (126–490) (Homo sapiens, UniProt Q13627); assay: Microscale thermophoresis (MST) direct binding assay; details: CK2α vs DYRK1A
T2 construct: The recombinant kinase domains of DYRK1A (126–490) and GSK3β (26–383), both with C-terminal His-tag extension; made in house; host or cells: E. coli LOBSTR

[4] = target: T3, DYRK1A-mediated phosphorylation of Cyclin D1 (Homo sapiens, UniProt Q13627); assay: Cyclin D1 phosphorylation profile (Western Blot) in transfected HEK293T cells; type: cell-based; details: HA-Cyclin D1 + FLAG-DYRK1A, 10 μM, 3 h
T3 construct: expressed in transfected cells; host or cells: HEK293T (pcDNA3.1, transient)

[5] = test system: calcineurin/NFAT pathway with overexpressed DYRK1A; assay: NFAT translocation assay (EGFP-NFATc1 imaging) in HEK293T cells; type: cell-based, human; details: 5 μM pretreatment 3 h, ionomycin 1 h
DYRK1A = test system: DYRK1A; parameters: method as in PMID 29191878; details: cell lysates; Table S2 of ref 38; read-out: EC50 (Kinobeads); cited from earlier work
GSK3β = test system: GSK3β; parameters: method as in PMID 21870818; details: at 500 nM; cited from earlier work
DYRK2 = test system: DYRK2; parameters: method as in PMID 21870818; details: at 500 nM; cited from earlier work
CK2α = test system: CK2α; parameters: method as in PMID 21870818; details: at 500 nM; cited from earlier work
CLK3 = test system: CLK3; parameters: method as in PMID 21870818; details: at 500 nM; cited from earlier work
HIPK3 = test system: HIPK3; parameters: method as in PMID 21870818; details: at 500 nM; cited from earlier work

T1 sequence (P49841 26-383): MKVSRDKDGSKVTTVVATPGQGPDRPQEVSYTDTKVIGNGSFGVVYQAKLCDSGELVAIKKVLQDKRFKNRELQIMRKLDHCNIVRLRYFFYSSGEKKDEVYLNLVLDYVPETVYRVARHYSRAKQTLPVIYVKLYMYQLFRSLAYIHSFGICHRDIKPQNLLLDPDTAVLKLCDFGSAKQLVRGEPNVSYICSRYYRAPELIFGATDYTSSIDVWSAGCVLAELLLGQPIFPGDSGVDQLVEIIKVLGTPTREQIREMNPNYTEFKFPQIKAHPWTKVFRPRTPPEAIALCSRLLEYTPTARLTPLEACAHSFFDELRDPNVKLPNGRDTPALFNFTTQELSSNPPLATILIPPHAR

O=C1Cc2c([nH]c3ccc(Br)cc23)-c2ncccc2N1 [1-azakenpaullone]
effect on GSK3β-mediated Cyclin D1 phosphorylation [1]: same effect | nuclear translocation of EGFP-NFAT despite overexpressed GSK3β [2]: reversed the effect of GSK3β-controlled NFAT cellular localization

O=C(O)c1ccc2c(c1)nc(Nc1cccc(Cl)c1)c1ccncc12 [CX-4945, 5-(3-Chlorophenylamino)benzo[c][2,6]naphthyridine-8-carboxylic Acid]
difference in binding between CK2α and DYRK1A [3]: 5 fold | effect on DYRK1A-mediated Cyclin D1 phosphorylation [4]: complete inhibition | nuclear translocation of EGFP-NFAT despite overexpressed DYRK1A [5]: restore the calcineurin/NFAT pathway | nuclear translocation of EGFP-NFAT despite overexpressed GSK3β [2]: reversed the effect of GSK3β-controlled NFAT cellular localization | EC50 (DYRK1A): […] | inhibition of GSK3β (GSK3β): 55% | inhibition of DYRK2 (DYRK2): more than 95% | inhibition of CK2α (CK2α): more than 90% | inhibition of CLK3 (CLK3): more than 90% | inhibition of HIPK3 (HIPK3): more than 90%

COc1ccc2c(c1)[nH]c1c(C)nccc12 [harmine]
effect on DYRK1A-mediated Cyclin D1 phosphorylation [4]: fully abolished | nuclear translocation of EGFP-NFAT despite overexpressed DYRK1A [5]: restore the calcineurin/NFAT pathway
